Source: patent publication US8334292B1, “Pyrimidine compounds and methods of making and using same” (Cystic Fibrosis Foundation Therapeutics, Inc., priority 2010, dated 2012)

Experiments:
ΔF508 CTFR [1] = target: T1, ΔF508 CTFR (Homo sapiens, UniProt P13569, DEL508-508); assay: Corrector assay, FRT cell electrophysiological (Ussing chamber) assay; type: cell-based; settings: FRT cells treated 24 hours with 3 μM compound; total change in ISC normalized to 10 μM reference corrector C17
T1 construct: expressed in transfected cells; host or cells: FRT epithelial cells (Fischer rat thyroid)
T1 sequence (P13569 with tags, fused parts or gaps DEL508-508): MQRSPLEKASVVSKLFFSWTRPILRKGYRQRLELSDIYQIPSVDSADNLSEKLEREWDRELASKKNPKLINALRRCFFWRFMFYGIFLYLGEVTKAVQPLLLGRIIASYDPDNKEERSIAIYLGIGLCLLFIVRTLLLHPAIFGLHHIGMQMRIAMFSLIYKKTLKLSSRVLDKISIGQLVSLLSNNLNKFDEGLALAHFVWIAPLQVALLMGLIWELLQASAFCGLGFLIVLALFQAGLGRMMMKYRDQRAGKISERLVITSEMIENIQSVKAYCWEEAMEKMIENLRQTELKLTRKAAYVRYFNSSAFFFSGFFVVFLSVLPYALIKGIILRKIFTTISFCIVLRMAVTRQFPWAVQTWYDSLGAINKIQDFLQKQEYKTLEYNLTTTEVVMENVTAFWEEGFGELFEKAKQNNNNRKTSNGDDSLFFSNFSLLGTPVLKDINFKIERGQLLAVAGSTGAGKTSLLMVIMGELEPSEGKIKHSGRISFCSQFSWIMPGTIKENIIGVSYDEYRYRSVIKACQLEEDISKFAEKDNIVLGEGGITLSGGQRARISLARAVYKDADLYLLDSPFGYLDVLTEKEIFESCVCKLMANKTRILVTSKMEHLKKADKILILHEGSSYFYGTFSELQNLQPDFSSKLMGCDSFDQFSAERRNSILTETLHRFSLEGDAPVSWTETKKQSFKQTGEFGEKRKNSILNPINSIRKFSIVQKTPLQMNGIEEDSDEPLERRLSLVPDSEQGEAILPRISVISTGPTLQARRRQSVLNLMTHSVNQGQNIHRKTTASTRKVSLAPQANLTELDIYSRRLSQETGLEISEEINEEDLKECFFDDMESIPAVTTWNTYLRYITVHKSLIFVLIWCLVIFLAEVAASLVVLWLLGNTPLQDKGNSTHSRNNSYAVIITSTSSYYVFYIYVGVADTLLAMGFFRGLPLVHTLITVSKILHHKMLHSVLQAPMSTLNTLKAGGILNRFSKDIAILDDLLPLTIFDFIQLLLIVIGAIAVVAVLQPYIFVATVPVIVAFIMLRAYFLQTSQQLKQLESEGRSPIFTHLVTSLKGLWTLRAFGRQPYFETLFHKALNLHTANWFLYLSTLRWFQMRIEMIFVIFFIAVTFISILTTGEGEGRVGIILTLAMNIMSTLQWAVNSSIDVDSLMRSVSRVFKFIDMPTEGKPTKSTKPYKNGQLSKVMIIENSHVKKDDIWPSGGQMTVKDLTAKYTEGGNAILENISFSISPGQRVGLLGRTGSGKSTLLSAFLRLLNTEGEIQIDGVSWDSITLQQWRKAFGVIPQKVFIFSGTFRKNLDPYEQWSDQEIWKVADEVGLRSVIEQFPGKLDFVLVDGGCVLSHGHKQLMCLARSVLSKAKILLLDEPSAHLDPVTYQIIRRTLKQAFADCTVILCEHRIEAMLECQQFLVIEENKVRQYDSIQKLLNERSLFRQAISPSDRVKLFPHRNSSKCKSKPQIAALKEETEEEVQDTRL
Method: (§1) For use in the corrector assay, FRT epithelial cell monolayers are grown on Snapwell filter inserts and optionally treated with a compound of invention, vehicle (DMSO) or reference corrector N-(2-(5-chloro-2-methoxyphenylamino)-4′-methyl-4,5′-bithiazol-2′-yl)pivalamide (C17). Cells are exposed to compound, vehicle (negative control) or reference corrector (positive control) in a cell/tissue incubator at 37° C. for 24 hours prior to the assay. The inserts are then transferred to a Physiologic Instruments Ussing chamber (P2302) and superfused with 5 ml of a HEPES buffered physiological saline (HB-PS) as the serosal solution with composition (in mM): NaCl, 137; KCl, 4.0; CaCl2, 1.8; MgCl2, 1; HEPES, 10; Glucose, 10; pH adjusted to 7.4 with NaOH. The mucosal solution will be 5 ml of 10CF—PS with composition (in mM): Na-gluconate, 137; KCl, 4; CaCl2, 1.8; MgCl2, 1; HEPES, 10; Glucose, 10; pH adjusted to 7.4 with N-methyl-D-glucamine to create a transepithelial Cl ion gradient. Transepithelial voltage is clamped to 0 mV and the short circuit current (ISC)—reflecting the net ion (Cl—) transport across the epithelial cell monolayer—is measured using a Physiologic Instruments VCC MC8 epithelial voltage clamp (Physiologic Instruments, Inc., San Diego, Calif.). The assay is carried out at 27° C.
(§2) After acquisition of at least 10 minutes of baseline current, agonists (final concentrations: 10 μM forskolin, 100 μM 3-isobutyl-1-methylxanthine [IBMX] and 20 μM genistein) and antagonist (final concentration: 20 μM CFTRinh-172) will be applied sequentially and cumulatively at ˜10-15 minute intervals to both serosal and mucosal epithelial surfaces. On occasion where a 10-15 min interval is not sufficient for ISC to reach a new steady-state after compound addition, the interval between compound additions may have been extended.
(§3) Agonists are added as 200×-1000× stock solutions to both the serosal and mucosal sides. Transepithelial resistance is monitored every 20 s. In a potentiator assay, appropriate volumes from 10 mM compound stock solution in DMSO are added to the mucosal side (i.e. the 10CF—PS solution containing half chamber) of vehicle treated inserts. Compound is added acutely after activation of CFTR by Forskolin and prior to additions of IBMX, genistein, and CFTRinh-172.
(§4) Corrector efficacy—as given in Table 3—is measured as the total change in ISC (i.e. the difference in ISC before and after addition of all agonists) obtained from cells treated with 3 μM compound of invention and normalized to the total change in ISC obtained from the same batch of cells treated contemporaneously with 10 μM reference corrector C17. Potentiator efficacy—as given in Table 3—is measured as the change in ISC after acute addition of 1 μM compound to the mucosal side of vehicle treated cells divided by the total change in ISC after sequential additions of 1 μM compound, 100 μM IBMX, and 20 μM genistein.

ΔF508 CTFR [2] = target: T1, ΔF508 CTFR; assay: Potentiator assay, FRT cell electrophysiological (Ussing chamber) assay; type: cell-based; settings: change in ISC after acute addition of 1 μM compound to mucosal side of vehicle treated FRT cells divided by total change in ISC after 1 μM compound, 100 μM IBMX, 20 μM genistein
Method: as §1, §2, §3, §4

SMILES	Corrector Efficacy (ΔF508 CTFR [1])	Potentiator Efficacy (ΔF508 CTFR [2])
CN(C)S(=O)(=O)N1CC(Oc2nc(N[C@H]3CC[C@@H](C)CC3)ncc2-c2ccc(N3CCOCC3)cc2)C1 [Example 1, N,N-dimethyl-3-(2-((1s,4s)-4-methylcyclohexylamino)-5-(4-morpholinophenyl)-pyrimidin-4-yloxy)azetidine-1-sulfonamide]	+++ (+++=>0.6)	++ (++=0.1-0.25)
C[C@H]1CC[C@@H](Nc2ncc(-c3ccc(O[C@H]4CCOC4)cc3)c(O[C@@H]3CCOC3)n2)CC1.Cl [Example 6, 4-((R)-tetrahydrofuran-3-yloxy)-5-(4-((S)-tetrahydrofuran-3-yloxy)phenyl)-N-(cis-4-methylcyclohexyl)pyrimidin-2-amine hydrochloride salt]	++ (++=0.3-0.6)	++ (++=0.1-0.25)
Cc1nc(N[C@H]2CC[C@@H](C)CC2)nc(O[C@@H]2CCOC2)c1-c1ccc(N2CCOCC2)cc1 [Example 43, 4-methyl-N-((1s,4S)-4-methylcyclohexyl)-5-(4-morpholinophenyl)-6((R)-tetrahydrofuran-3-yloxy)pyrimidin-2-amine]	++ (++=0.3-0.6)	+ (+=<0.1)
CS(=O)(=O)N1CC(Oc2nc(N[C@H]3CC[C@@H](C)CC3)ncc2-c2ccc(N3CCOCC3)cc2)C1 [Example 59, N-((1s,4s)-4-methylcyclohexyl)-4-(1-(methylsulfonyl)azetidin-3-yloxy)-5-(4-morpholinophenyl)pyrimidin-2-amine]	++ (++=0.3-0.6)	+ (+=<0.1)
CS(=O)(=O)N1CC[C@@H](COc2nc(N[C@H]3CC[C@@H](C)CC3)ncc2-c2ccc(N3CCOCC3)cc2)C1 [Example 78]	++ (++=0.3-0.6)	+ (+=<0.1)
CS(=O)(=O)N1CC(COc2nc(N[C@H]3CC[C@@H](C)CC3)ncc2-c2ccc(N3CCOCC3)cc2)C1 [Example 80, N-((1s,4s)-4-methylcyclohexyl)-4-((1-(methylsulfonyl)azetidin-3-yl)methoxy)-5-(4-morpholinophenyl)pyrimidin-2-amine]	++ (++=0.3-0.6)	+++ (+++=>0.25)
CC1CCC(Nc2ncc(-c3ccc(O[C@@H]4CCOC4)cc3)c(OC3CCOCC3)n2)CC1 (stereo partly drawn) [Example 93, N-((1s,4s)-4-methylcyclohexyl)-4-(tetrahydro-2H-pyran-4-yloxy)-5-(4-((R)-tetrahydrofuran-3-yloxy)phenyl)pyrimidin-2-amine]	+++ (+++=>0.6)	++ (++=0.1-0.25)
COC(=O)N1CCC(Oc2ccc(-c3cnc(NC4CCC(C)CC4)nc3O[C@@H]3CCOC3)cc2)C1 (stereo partly drawn) [Example 103, methyl 3-(4-(2-((1s,4S)-4-methylcyclohexylamino)-4-((R)-tetrahydrofuran-3-yloxy)pyrimidin-5-yl)phenoxy)pyrrolidine-1-carboxylate]	++ (++=0.3-0.6)	+ (+=<0.1)
CC1CCC(Nc2ncc(-c3ccc(OC4CCN(C(=O)N(C)C)C4)cc3)c(O[C@@H]3CCOC3)n2)CC1 (stereo partly drawn) [Example 112, N,N-dimethyl-3-(4-(2-((1s,4S)-4-methylcyclohexylamino)-4-((R)-tetrahydrofuran-3-yloxy)pyrimidin-5-yl)phenoxy)pyrrolidine-1-carboxamide]	++ (++=0.3-0.6)	+ (+=<0.1)
CC1CCC(Nc2ncc(-c3ccc(O[C@H]4CCOC4)cc3)c(OC3CCN(S(C)(=O)=O)CC3)n2)CC1 (stereo partly drawn) [Example 152, N-((1s,4s)-4-methylcyclohexyl)-4-(1-(methylsulfonyl)piperidin-4-yloxy)-5-(4-((S)-tetrahydrofuran-3-yloxy)phenyl)pyrimidin-2-amine]	+++ (+++=>0.6)	+++ (+++=>0.25)
COCCOc1ccc(-c2cnc(N[C@H]3CC[C@@H](C)CC3)nc2OC2CN(S(C)(=O)=O)C2)cc1 [Example 153, 5-(4-(2-methoxyethoxy)phenyl)-N-((1s,4s)-4-methylcyclohexyl)-4-(1-(methylsulfonyl)azetidin-3-yloxy)pyrimidin-2-amine]	++ (++=0.3-0.6)	+ (+=<0.1)
CC1CCCC(C)C1Nc1ncc(-c2ccc(O[C@H]3CCOC3)cc2)c(O[C@@H]2CCOC2)n1 (stereo partly drawn) [Example 170, N-(2,6-dimethylcyclohexyl)-4-((R)-tetrahydrofuran-3-yloxy)-5-(4-((S)-tetrahydrofuran-3-yloxy)phenyl)pyrimidin-2-amine]	+++ (+++=>0.6)	+ (+=<0.1)
COCCc1ccc(-c2cnc(N[C@H]3CC[C@@H](C)CC3)nc2OC2CCN(C(=O)OC)CC2)cc1 [Example 206, methyl 4-(5-(4-(2-methoxyethyl)phenyl)-2-((1s,4s)-4-methylcyclohexylamino)pyrimidin-4-yloxy)piperidine-1-carboxylate]	++ (++=0.3-0.6)	+ (+=<0.1)
CC1CCC(Nc2ncc(-c3ccc(O[C@@H]4CCOC4)cc3)c(OC3CN(S(=O)(=O)N(C)C)C3)n2)CC1 (stereo partly drawn) [Example 207, N,N-dimethyl-3-(2-((1s,4s)-4-methylcyclohexylamino)-5-(4-((R)-tetrahydrofuran-3-yloxy)phenyl)pyrimidin-4-yloxy)azetidine-1-sulfonamide]	+++ (+++=>0.6)	+ (+=<0.1)
CC1CCC(Nc2ncc(-c3ccc(O[C@H]4CCOC4)cc3)c(OC3CN(S(=O)(=O)N(C)C)C3)n2)CC1 (stereo partly drawn) [Example 214, N,N-dimethyl-3-(2-((1s,4s)-4-methylcyclohexylamino)-5-(4-((S)-tetrahydrofuran-3-yloxy)phenyl)pyrimidin-4-yloxy)azetidine-1-sulfonamide]	+++ (+++=>0.6)	+ (+=<0.1)
CC1CCC(Nc2ncc(-c3ccc(O[C@H]4CCOC4)cc3)c(OC3CN(S(=O)(=O)C4CC4)C3)n2)CC1 (stereo partly drawn) [Example 215, 4-(1-(cyclopropylsulfonyl)azetidin-3-yloxy)-N-((1s,4s)-4-methylcyclohexyl)-5-(4-((S)-tetrahydrofuran-3-yloxy)phenyl)pyrimidin-2-amine]	+++ (+++=>0.6)	+++ (+++=>0.25)
